The results in this text go back to patent US20230165865A1, “HETEROARYLDIHYDROPYRIMIDINE DERIVATIVES AND METHODS OF TREATING HEPATITIS B INFECTIONS” (Janssen Pharmaceutica NV, priority 2018, published 2023).

What is called Cmax is the highest concentration seen after dosing.

Data set [1] in a line: Metabolic stability of test compound in human hepatocyte cell. The format is in vitro ADME. Conditions: cryopreserved human hepatocytes (suspension), human hepatocytes; for half-life at 1 uM: 0-120 min, read-out: T½; for CLint scaled at 1 uM: scale-up intrinsic clearance, scaling factor 2544.3, read-out: Clint (liver). Here is the method: • 1. The cryopreserved human hepatocytes cells were thawed in 37° C. water bath and diluted with pre-warmed incubation medium to a working cell density of 1×10^6 viable cells/mL. • 2. The 198 μL pre-warmed hepatocyte suspensions were spiked with 2 μL of 100 μM compound or reference compound(Verapamil) at a final concentration of 1.0 μM in a 96-well plate. The plate was incubated at 37° C., 900 rpm. All incubations will be performed in singlet. • 3. 25 μL aliquots of well contents were collected at time points of 0, 15, 30, 60, 90 and 120 minutes. The reactions were stopped by the addition of 6-fold volumes of cold acetonitrile with internal standards. • 4. After centrifugation for 25 minutes at 3,220 g. Aliquot of 100 μL of the supernatant was mixed with 100 μL of ultra-pure H2O and then used for LC-MS/MS analysis.
All calculations were carried out using Microsoft Excel. Peak areas were determined from extracted ion chromatograms. Determine the in vitro half-life (t1/2) of parent compound by regression analysis of the percent parent disappearance vs. time curve.
The in vitro half-life (in vitro t1/2) is determined from the slope value k:
Conversion of the in vitro t1/2(in min) into the in vitro intrinsic clearance (in vitro CLint, in μL/min/10^6 cells) is done using the following equation:
V=incubation volume (0.2 mL);
N=number of hepatocytes per well (0.2×10^6 cells).
Conversion of the in vitro t1/2(in min) into the scale-up intrinsic clearance (CLint(liver), in mL/min/kg) was done using the following equation:
CLint(liver)=kV/N×scaling factor

In data set [2] the test system is cryopreserved human hepatocytes. Nature of the data set: Cell viability assessment in CYP induction study (CellTiter-Fluor). The format is cell-based. Conditions: donor 1, 10 μM, 72 hours. Here is the method: Preparation and Plating of Human Hepatocytes • 1. The cryopreserved human hepatocytes were thawed in 37° C. water bath and diluted by plating medium to a seeding density of 0.55×10^6 cells/mL. • 2. Transfer 100 μL to each well of collagen I coated 96-well plate. Place plate(s) in incubator and incubate at 37° C. for 4-6 hours. • 3. After incubation, observe cell morphology, agitate plate(s) to loosen debris, and replace medium. Place plate in incubator and incubate for 18 hours.
Incubation with Test Compound(s) • 1. Prepare dilute test compound and positive control inducers with 37° C. prepared incubation medium to respective working concentrations (Table 11). Final concentration of DMSO in the treatment group will be 0.1%. Prepare 25 mM chlorpromazine in DMSO and dilute 1000-fold with incubation medium as a cytotoxicity control.
• 2. Remove the Hepatocyte plate from the incubator. Observe cell morphology. Replace the medium in the appropriate wells with 125 μL of the toxicity controls, DMSO controls, inducers, or test article solutions, each in triplicate. • 3. After 24 hours and 48 hours, remove the Hepatocyte plate from the incubator and observe cell morphology. Renew the medium with test articles that freshly diluted from DMSO stocks. […]
After 72 hours of treatment, warm the incubation medium to 37° C. […] Cell viability was assessed by CellTiter-Fluor™ Cell Viability Assay kit. […]

Data set [3] in a line: Pharmacokinetic study after intravenous and oral administration in male SD rats. The class given is in vivo. Conditions: for clearance / Cmax: male, SD; for clearance / IV AUCinf/Dose: IV, nominal 2 mg/kg; for clearance: read-out: IV Cl; for Cmax / PO AUCinf/Dose: PO; for Cmax: nominal 5 mg/kg; for F: PO vs IV. The protocol: Male SD rats with a weight range of 250-300 g (Si Bei Fu Laboratory Animal Technology Co. Ltd, China) were used. Animals were fasted overnight and free access to food 4 hours after dosing.
Test compound (correction factor: 1.00) was dissolved in a 20% hydroxypropyl-β-cyclodextrin (HP-β-CD) at a final concentration of 1 mg/ml for the intravenous (IV) formulation and at final concentrations of 0.5 mg/ml for the oral (PO) formulation.
The intravenous formulation was dosed at 2 ml/kg to obtain a dose of 2 mg/kg. The oral formulations were dosed at 10 ml/kg to obtain final doses of 5 mg/kg.
Blood samples were taken at 5, 15 and 30 min, 1, 2, 4, 8 and 24 h after intravenous dose administration. Blood samples were taken at 15 and 30 min, 1, 2, 4, 8, 12 and 24 h after oral dose administration.
Approximately 0.20 mL blood will be collected into BD blood collection tubes containing Sodium Fluoride (NaF), Potassium Oxalate (KoX) and K3-EDTA at each time point. Samples were placed immediately on melting ice and plasma was obtained following centrifugation at 4° C. for 5 minutes at approximately 4000×g. Plasma samples were adjusted to pH 3-4 by phosphoric acid and stored at −75±15° C. prior to analysis. The whole process was completed within 1 hour.
Plasma samples were analyzed using LC-MS/MS methods. The lower limit of quantification (LLOQ) for plasma was 1.0 ng/ml.
A non-compartmental analysis using the “Linear up log down” rule was used for all data. A limited pharmacokinetic analysis was performed using Phoenix™ Professional (Version 6.1). Results: See table 10 below for plasma PK results.

[4] abbreviates: rat plasma, comparing with reference 2.

The structures appear in SMILES notation.

On to `CCOC(=O)C1=C(CN2CCN3C(=S)N(CC(C)(C)C(=O)O)CC3C2)NC(c2nccs2)=N[C@H]1c1cccc(F)c1C` (single isomer, unassigned) [Compound 1A], for which, in data set [1], the half-life at 1 uM came to 3.82 h and the CLint scaled at 1 uM stood at 7.7 mL/min/kg. In addition, the Cell viability in data set [2] was 95%. For the same compound, in data set [3] (rat plasma), the clearance amounted to 11.6 mL/min/kg, the Cmax was 4060 ng/mL, the “IV AUCinf/Dose” value amounted to 1578.1 ng·kg·h/mg/mL and the “PO AUCinf/Dose” value was found to be 1780.7 ng·kg·h/mg/mL. Moreover, in data set [3] (setting [4]), the “clearance, in words” value is reported as “far slower clearance” and the “dose-normalized AUC (AUCinf/Dose), in words” value was “over two-folds higher”. The F in data set [3] (rat) came out at 113%. In addition, the “bioavailability (F (%)), in words” value in data set [3] (rat, comparing with reference 2) is recorded as “increased (or equal) bioavailability”.

Turning to `CCOC(=O)C1=C(CN2CCN3C(=O)N(CC(C)(C)C(=O)O)C[C@@H]3C2)NC(c2nccs2)=N[C@H]1c1cccc(F)c1C` [Reference 2, reference compound], in data set [1], the half-life at 1 uM is 2.45 h and the CLint scaled at 1 uM came to 12 mL/min/kg. The Cell viability in data set [2] is 117%. In addition, in data set [3] (rat plasma), the clearance was found to be 65.6 mL/min/kg, the Cmax worked out at 332 ng/mL, the “IV AUCinf/Dose” value was found to be 254.9 ng·kg·h/mg/mL and the “PO AUCinf/Dose” value was determined as 129.7 ng·kg·h/mg/mL. For the same compound, the F in data set [3] (rat) came out at 50.8%.
